From patent publication US10494332B2, “Protein tyrosine phosphatases or SHP2 inhibitors and uses thereof” (Indiana University Research and Technology Corporation, priority 2015, dated 2019) come the findings set out here.

The subject of series [1] is M. tuberculosis H37Rv. As to the kind of experiment: Microplate Alamar Blue assay (MABA) MIC. The series is classed as cell-based, Mycobacterium tuberculosis. In general terms: Alamar Blue is a resazurin reagent that responds to reducing activity.
A further series concerns M. tuberculosis Erdman. Briefly: Microplate Alamar Blue assay (MABA) MIC. The series is classed as cell-based. The following applies: Mycobacterium tuberculosis, minimum inhibitory concentration, read-out: In vitro anti-Mtb activity MABA-MIC Erdman.
Series [2] has as its system M. tuberculosis (Erdman and H37Rv) in J774 macrophages. Briefly: Macrophage assay: growth of M. tuberculosis in IFN-γ activated J774 macrophages. The series is classed as cell-based, Mycobacterium tuberculosis.
Series [3] in a line: Pharmacokinetics and bioavailability in guinea pigs. The series is classed as in vivo, guinea pig. As for the experimental part: All drugs were suspended in 1% DMSO, 0.5% DEA, 48.5% PEG 400, and 50% water. Blood was collected for analysis of these drugs in plasma pre-dose and at 1, 4, 8, 24, and 48 h post-dose. Plasma was separated and stored at −70° C. until analysis. Plasma drug concentrations were determined by liquid chromatography-mass spectrometry and liquid chromatography-tandem mass spectrometry over the concentration range of 0.005-1 mg/L with dilution to 10 mg/L. Pharmacokinetic variables were calculated from individual drug concentration-time data using non-compartmental methods as implemented in WinNonlin version 5.0 (Pharsight, Mountain View, Calif.) as described earlier.

For series [4], the system named is M. tuberculosis H37Rv. As to the kind of experiment: Chronic TB infection in guinea pigs, adjunctive treatment with HRZ. The series is classed as in vivo, guinea pig. Conditions: added to the standard regimen HRZ, after 6 weeks of treatment.
For a further series, the target named is T1, VHZ (Homo sapiens, UniProt Q9BVJ7).
T1 sequence (Q9BVJ7 1-150): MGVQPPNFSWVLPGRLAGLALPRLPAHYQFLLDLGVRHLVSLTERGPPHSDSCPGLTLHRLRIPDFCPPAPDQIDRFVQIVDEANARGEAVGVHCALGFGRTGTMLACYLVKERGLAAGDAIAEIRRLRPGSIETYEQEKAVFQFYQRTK
As to the kind of experiment: PTP inhibition assay (pNPP). The series is classed as biochemical.

A short description of a further series: Water solubility. The series is classed as physicochemical.
For series [5], the system named is mPTPB transfected Raw264.7 cells. As to the kind of experiment: IFN-γ induced Erk1/2 phosphorylation in transfected Raw264.7 macrophages. The series is classed as cell-based, mouse. As for the experimental part:
Raw264.7 mouse macrophages were cultured in Dulbecco's modified Eagle's medium (DMEM) supplemented with 10% FBS (Invitrogen), penicillin (50 units/mL), and streptomycin (50 μg/mL) under a humidified atmosphere containing 5% CO2 at 37° C. Transfected Raw264.7 cells (Vector, WT-mPTPB) were seeded in a 12-well plate at a density of 4×10^4 cells/well. The following day cells were treated with mPTPB inhibitor 11a for 1 hour, then stimulated with IFN-γ (200 U/ml) for 1 hour. Subsequently, the cells were washed with ice-cold phosphate buffered saline, and lysed with lysis buffer on ice for 30 minutes. Cell lysate was then cleared by centrifuging at 13,000 rpm for 15 minutes. The phosphorylation of ERK1/2 was detected by Western blotting.

Series [6] concerns insulin signaling pathway in HepG2 cells (LMWPTP). As to the kind of experiment: Insulin signaling in HepG2 cells. The series is classed as cell-based. Conditions: HepG2, 1 hour pretreatment, 5 nM insulin for 5 minutes. As for the experimental part: To assess the effects of L335N15 in insulin signaling pathway, HepG2 cells were pretreated with L335N15 for 1 hour and were subsequently stimulated with 5 nM insulin for 5 minutes. […] Consistent with IR activation, downstream Akt phosphorylation (Ser473) was increased. […] Accordingly, LMWPTP inhibitors such as L335N15 described herein can be used to develop agents for the treatment of type 2 diabetes and insulin resistance.

The structures appear in SMILES notation.

A word on the MIC: it is the lowest concentration that inhibits growth of the organism. As a reminder, the IC90 is the concentration at which the effect reaches the 90% level. Usually Tmax stands for the time from dosing to the highest level. In the case of `Cc1c(Br)cc(NC(=O)CS(=O)(=O)O)cc1Br`, the “Activity in standard MIC assay” value in the series on M. tuberculosis H37Rv [1] was “devoid of activity”. Also, the minimum inhibitory concentration (MIC) in the series on M. tuberculosis H37Rv [1] (Mycobacterium tuberculosis, H37RV, minimum inhibitory concentration, read-out: In vitro anti-Mtb activity MABA-MIC H37Rv) is > 10 µM; with M. tuberculosis Erdman, > 10 µM. Further, the “Anti-Mtb activity in infected macrophages” value in series [2] (J774A.1 macrophages, low micromolar concentrations) was “markedly decrease bacterial load”. The IC90 in series [2] (Mycobacterium tuberculosis, J774, IC90 in macrophages activated with interferon-γ, read-out: In vitro anti-Mtb activity, Mtb-infected macrophages (IC90)) amounted to 1.38 µM. In [3] (guinea pig, in vivo, po), the “Time plasma concentration 10-fold in excess of biochemical IC50” value is reported as 12-14 hours. In series [3] (guinea pig, plasma, po), the Tmax is 2.5 h. Further, the “Oral bioavailability and half-life in guinea pigs” value in series [3] (oral) was “good oral bioavailability and half-life”. Besides, the “Further reduction of mean lung CFU relative to HRZ” value in the series on M. tuberculosis H37Rv [4] amounted to 0.14 log10.

As a reminder, the IC50 is the concentration that inhibits the measured activity by half. Lower therefore signals greater potency in that assay. For the molecule `O=C(Nc1cccc(OCc2ccccc2)c1)C(c1ccccc1)S(=O)(=O)O` (stereo not shown) [Compound L319M52], on VHZ, the IC50 is > 200 µM.

For `O=C(Nc1ccc2nc(C(F)(F)F)[nH]c2c1)C(c1ccccc1)S(=O)(=O)O` (stereo not shown) [Compound L319M54], at VHZ, the IC50 is > 200 µM.

For the molecule `O=C(Nc1nc2ccccc2s1)C(c1ccccc1)S(=O)(=O)O` (stereo not shown) [Compound L319N15], on VHZ, the IC50 is > 200 µM.

For orientation: solubility means the dissolved amount per volume that the medium holds. Low readings indicate little dissolved substance, high ones much dissolved substance. In the case of `O=C(C(c1ccccc1)S(=O)(=O)O)N1CCC(Cc2ccccc2)CC1` (stereo not shown) [Compound L319N46], the solubility in the series “Water solubility” is > 10000 µg/mL. Also, on VHZ, the concentration for half-maximal inhibition (IC50) was > 200 µM.

On to `O=C(C(c1ccccc1)S(=O)(=O)O)N1CCC(c2ccc(Cl)c(Cl)c2)CC1` (stereo not shown) [Compound L319N47], for which the solubility in the series “Water solubility” was > 10000 µg/mL. For the same molecule, the IC50 against VHZ was found to be 80 µM.

For the molecule `O=C(C(c1ccccc1)S(=O)(=O)O)N1CCCC2CCCCC21` (stereo not shown) [Compound L319N53], the solubility in the series “Water solubility” is > 10000 µg/mL. The 50% inhibitory concentration (IC50) on VHZ was > 200 µM. Further, in series [5] (8 nM, 16 nM, and 32 nM), the “Erk1/2 phosphorylation in mPTPB transfected Raw264.7 cells” value is “increased Erk1/2 phosphorylation”. For the same molecule, in series [5] (vector Raw264.7 cells), the “Erk1/2 phosphorylation in vector cells” value is “no effect”.

With `O=C(CS(=O)(=O)O)Nc1nc2ccccc2s1` [Compound L335N15], the “Akt phosphorylation (Ser473)” value in [6] is on record as “increased”. Moreover, the “IR Tyr1162/1163 phosphorylation” value in [6] (relative to DMSO) is “enhanced IR Tyr1162/1163 phosphorylation in a dose-dependent fashion”.
